Experimental data: patent publication US7579477B2, “Thiazole-based nitric oxide donors having alkyl substituent(s) and uses thereof” (priority 2004, dated 2009)
Entries after “also recorded” stand apart in the source; their conditions may differ.

How the values were obtained:
[1] = tested on: isolated rat aorta; test: In vitro induction of tolerance to NO releasing compounds (vasorelaxation after pre-exposure); format: cell-based; conditions: rat aorta pre-treated with epinephrine and then with the compound (0.44 mM) versus control
Description: Aortic rings were prepared as described hereinabove, and were exposed to 0.44 mM GTN (vehicle was water:ethanol:propyleneglycol at proportional ratio of 1:1:1) for 1 hour before CCRC construction, to thereby induce tolerance to nitroglycerine. At the end of the tolerance induction period, rings were thrice washed with the path buffer (Krebs-bicrbonate) every 15 minutes for the following hour and then CCRC for vasorelaxation on GTN-induced tolerance rings were constructed for GTN (pretreated versus untreated rings, FIG. 15), in order to verify the ability to induce and measure GTN tolerance induction in vitro
Attempted induction of tolerance to the NO-donating compounds of the present invention was performed under the same conditions as for GTN. Thus, in an exemplary experiment, rings were exposed to 0.44 mM solution of Pet-3 in the attempt to induce tolerance for Pet-3. CCRC were then measured for the vasorelaxing effect of Pet-3 on a group of rings which were pre-exposed to Pet-3 as to induce tolerance to Pet-3, and for an untreated control group. The above protocol was repeated with Pet-2, Pet-7, Pet-8, Pet-12, Pet-24, Pet-43, Pet-149 and Pet-152.

[2] = tested on: cGMP in isolated aorta of rats pre-treated in vivo; test: Induction of in vivo nitrate tolerance (cGMP in aorta after 16 hour infusion); set-up: species or system rat; conditions: for tolerance induction in vivo: cGMP accumulation in aorta of rats pre-treated in vivo, FIGS. 24, 26
Description: For c-GMP levels and tolerance development, the rat's thoracic aorta was isolated after exposure to the tested compound in vivo, and measured as described above in the in vitro assays.
Male Sprague Dawley rats (220 to 250 grams) were housed under constant temperature and humidity conditions. Light was maintained at a 12/12 light dark cycle. Except for 12 hours before the experiment, when food fasting was initiated, all rats had free access to standard rat pellet diet and tap water. The animals were anesthetized by intraperitoneal injection of ketamine and xylazine combination (50 and 10 milligram per kilogram, respectively). […] The catheters were filled with normal saline solution containing 1000 IU/ml of heparin and plugged with a metal pin. Catheters were externalized to the back of the neck region and secured by a polyester felt disk.
After implantation, the rats were individually housed until they regained their preoperative weight and appeared healthy (3 to 4 days post-operation). At this time point (day 0), an osmotic mini-pump (Alza Corp., Palo Alto, Calif.) delivering constant volume (10 μl/hour) of vehicle or drug was connected to one of the intravenous catheters.
For inducing tolerance to the tested NO-donor according to the present invention, the animals received 200 μg/hour of the tested compound for 16 hours (short-term-induced tolerance). A similar number of animals were processed by the same surgical procedure and received the vehicle alone (10 μl/hour of a solution consisting of 30% ethanol and 30% propylene glycol in sterile distilled water for injection).
At the end of the infusion periods used for the development of tolerance (16 hour), the rats were anesthetized as described above, the two catheters were externalized and the delivering catheters were disconnected from the mini-pump. The abdomen was opened by midline incision and the thoracic aorta were isolated, washed and cleaned from the surrounding tissues. […]

[3] = tested on: mean arterial blood pressure of rats; test: Hypotensive effects: mean arterial pressure after iv bolus; format: in vivo, rat; conditions: anesthetized rats, phenylephrine, iv bolus doses
Description: Mean arterial pressure (MAP) was monitored and determined during bolus infusion of Pet-2, Pet-3, Pet-7, Pet-8, Pet-12 and Pet-13. Briefly, polyethylene catheters (PE50) were inserted into the carotid artery and into the jugular vein of anesthetized hypertensive Sprague-Dawley male rats (200-300 grams). A blood pressure recorder was placed within the carotid artery. Phenylephrine (0.1 mg) was then injected and the mean arterial blood pressure (MABP) was monitored continuously until a stable baseline was reached. The hypotensive effects of intravenous (iv) bolus doses (0.1 mg of each tested compound) administered intravenously at the jugular vein in minimal volume of vehicle (0.2 ml per dose) were evaluated. Five minutes were allowed between each dose, during which the maximal decrease in MAP was recorded and a dose-response graph comparing the hypotensive effect of the compounds was constructed.

[4] = tested on: c-GMP in aortic rat tissue; test: Cyclic-GMP measurement in aortic rat tissue (radioimmunoassay); format: cell-based; conditions: for levels of cGMP as compared with GTN: isolated rat aorta, FIGS. 25, 27, 33
Description: GTN (10^−6 M) was added to the chamber and, 1 minute after exposure to the drug, rings (usually 3-5) were taken, wrapped with aluminum foil and immediately frozen in liquid nitrogen for storage. Control sample group was treated with the vehicle solution only. At the time of analysis, rings were thawed, blotted over a dry gauzed and weighted. A known weight of tissue was homogenized in 2 ml ice-cold modified Hank's balanced salt solution containing (in gram/liter) NaCl 8; KCl 0.4; glucose 1; KH2PO4 0.06; Na2HPO4 0.047; Phenol red 0.017 and further containing 25 mM EDTA (disodium salt). The homogenate was centrifuged at 4000 g (force units) for 10 minutes at 2-4° C. and the supernatant was thereafter transferred into fresh pre-cooled test tube containing 1 ml of acetonitrile. The tubes were vortex mixed for a few seconds and subsequently centrifuged at 4000 g for 5 minutes at 2-4° C., to remove the precipitated protein. Each supematant was transferred into a clean test tube and evaporated to dryness under a stream of nitrogen at 55° C. The dry residue was reconstituted with 10 volumes of Tris-EDTA buffer pH 7.5 (0.05 M Tris containing 4 mM EDTA). Aliquots of 100 μl of the reconstituted solution in duplicate were used for c-GMP measurements using Amersham RIA kit, as is described in Haj-Yehia & Benet [Pharmacology, 1995, 273, 1, pp. 94-100]. Standard curves were plotted with six concentrations (0, 0.5, 1, 2, 4 and 8 pmoles of c-GMP per tube).

[5] = tested on: isolated rat aorta; test: Cross-tolerance study GTN / Pet-12 on aortic rings; format: cell-based
Description: Cross-tolerance studies were conducted using the same technique described above for measuring vasorelaxation of aortic rings from rats. Two groups of aortic rings samples were pre-treated with GTN, then one group was measured for vasorelaxation by GTN and the second group for vasorelaxation by Pet-12, an exemplary NO-donor according to the present invention. For the opposite cross-tolerance studies, two groups of aortic rings samples were pre-treated with Pet-12, then one group was measured for vasorelaxation by GTN and the second group for vasorelaxation by Pet-12.

[6] = tested on: isolated rat aorta; test: In vitro vasorelaxation of rat aortic rings contracted with epinephrine; format: cell-based; conditions: isolated rat aorta pre-treated in vitro with 1 μM epinephrine; figure legends
Excerpt: Male Sprague Dawley rats were anaesthetized using intraperitoneal injection of ketamine and xylazine (50 and 10 milligram per kilogram, respectively) and the thoracic aorta, the large upper portion of the descending aorta, starting at the caudal border of the chest bone, was removed thereafter, while carefully removing the paraadventetial tissue surrounding the vessel. Aortae were cut into rings of 4-5 millimeters and mounted onto the tissue path. The path buffer (Krebs-bicrbonate) was constantly gassed with carbogen and maintained at 37° C. The rings were preloaded under 2 g tension and equilibrated for 90 minutes, while refreshing the buffer every 15 minutes. After stabilization, the rings were contracted with epinephrine (1 μM). Cumulative Concentration-Response Curves (CCRC) were measured for the vasorelaxing effect induced by adding various concentrations, ranging from 10^−10 M to 10^−5 M of Pet-2, Pet-3, Pet-7, Pet-8, Pet-12, Pet-24, Pet-43, Pet-59, Pet-147, Pet-152 and Pet-154, and glyceryltrinitrate (GTN), according to the procedure described in Feelich et al., Molecular Pharmacology, 56:243-253 (1999). The vehicle, which was used for this experiment was water:ethanol:propyleneglycol at proportional ratio of 1:1:1.

Compound | tolerance induction in vitro [1] | hypotensive effect on MAP following successive administrations [3] | levels of cGMP as compared with GTN [4] | vasorelaxation effect as compared with glyceryltrinitrate [6] | further results
O=[N+]([O-])OCC(CO[N+](=O)[O-])O[N+](=O)[O-] [GTN, glyceryl trinitrate, reference compound] | tolerance induced | attenuation | – | – | level of cGMP following a repeated treatment in vivo ([2]; aorta of rats infused in vivo, FIG. 24): decreased; tolerance induction in vivo [2]: tolerance inducing effect; c-GMP level following a repeated treatment ([4]; rat aorta): significantly reduced
Cc1nc(CCCCc2nc(C)c(CCO[N+](=O)[O-])s2)sc1CCO[N+](=O)[O-] [Pet-13] | – | consistent and reproducible | – | – | –
Cc1nc(-c2cccnc2)sc1CCO[N+](=O)[O-] [Pet-12, 3-[4-Methyl-5-(2-nitrooxy-ethyl)-thiazole-2-yl]-pyridine] | absence of tolerance induction | consistent and reproducible | – | – | effect of induced tolerance to GTN on vasorelaxation capacity ([5]; rings pre-treated with GTN): no effect; tolerance evoked by pre-treatment with Pet-12 ([5]; rings pre-treated with Pet-12, vasorelaxation by GTN or Pet-12): does not evoke tolerance to itself not to GTN; tolerance induction in vivo [2]: absence of tolerance induction; also recorded: lack of tolerance induction
CCNc1nc(C)c(CCO[N+](=O)[O-])s1 [Pet-147, Ethyl-[4-methyl-5-(2-nitrooxy-ethyl)-thiazol-2-yl]-amine] | – | – | increased levels of cGMP | – | –
Cc1nc(NC(=O)c2cccnc2)sc1CCO[N+](=O)[O-] [Pet-154, N-[4-methyl-5-(2-nitrooxy-ethyl)-thiazol-2-yl]-nicotinamide] | – | – | increased levels of cGMP | – | –
Cc1nc(C)c(CCO[N+](=O)[O-])s1 [Pet-3, 2,4-Dimethyl-5-(2-nitrooxy-ethyl)-thiazole] | absence of tolerance induction | consistent and reproducible | increased levels of cGMP | superior | –
Cc1nc(-c2ccc(C(F)(F)F)cc2)sc1CCO[N+](=O)[O-] [Pet-59, 4-Methyl-5-(2-nitrooxy-ethyl)-2-(4-trifluoromethyl-phenyl)-thiazole] | – | – | increased levels of cGMP | superior | –
Cc1nc(-c2ccccc2)sc1CCO[N+](=O)[O-] [Pet-8, 4-Methyl-5-(2-nitrooxy-ethyl)-2-phenyl-thiazole] | – | consistent and reproducible | increased levels of cGMP | superior | –
Cc1nc(Nc2cccc3ccccc23)sc1CCO[N+](=O)[O-] [Pet-149, [4-Methyl-5-(2-nitrooxy-ethyl)-thiazol-2-yl]-naphthalen-1-yl-amine] | absence of tolerance induction | – | increased levels of cGMP | superior | –
C=CCNc1nc(C)c(CCO[N+](=O)[O-])s1 [Pet-155, allyl-[4-methyl-5-(2-nitrooxy-ethyl)-thiazol-2-yl]-amine] | – | – | increased levels of cGMP | superior | –
Cc1nc(Nc2nc(C)c(CCO[N+](=O)[O-])s2)sc1CCO[N+](=O)[O-] [Pet-43, Bis-[4-methyl-5-(2-nitrooxy-ethyl)-thiazol-2-yl]-amine] | absence of tolerance induction | – | – | superior | –
CNc1cncc(-c2nc(C)c(CCO[N+](=O)[O-])s2)n1 [Pet-24, Methyl-{6-[4-methyl-5-(2-nitrooxy-ethyl)-thiazol-2-yl]-pyrazin-2-yl}-amine] | absence of tolerance induction | – | increased levels of cGMP | – | –
Cc1nc(NC(=O)[C@@H](C)c2ccc(CC(C)C)cc2)sc1CCO[N+](=O)[O-] (stereo in doubt) [Pet-152, 2-(4-Isobutyl-phenyl)-N-[4-methyl-5-(2-nitrooxy-ethyl)-thiazol-2-yl]-propionamide] | – | – | increased levels of cGMP | superior | –
Cc1nc(N(C)C)sc1CCO[N+](=O)[O-] [Pet-7, Dimethyl-[4-methyl-5-(2-nitrooxy-ethyl)-thiazol-2-yl]-amine] | absence of tolerance induction | consistent and reproducible | increased levels of cGMP | – | –
Cc1nc(N)sc1CCO[N+](=O)[O-] [Pet-10, 4-methyl-5-(2-nitrooxy-ethyl)-thiazole-2-ylamine] | – | – | increased levels of cGMP | – | –
